Experimental data as given in paper PMC6017932, “Synthesis of Selenium-Quinone Hybrid Compounds with Potential Antitumor Activity via Rh-Catalyzed C-H Bond Activation and Click Reactions” (Molecules : A Journal of Synthetic Chemistry and Natural …, 2017).
Read-outs that look alike come from different tables or passages of the source.

Assays:
[1] = test system: SF295 (human glioblastoma cells); assay: MTT cytotoxicity, SF295 cells; type: cell-based; settings: three independent experiments, read-out: Cytotoxic activity IC50 (95% CI) SF295
Procedure: (§1) Compounds were evaluated for antitumor activity in cell culture in vitro using several human cancer cell lines obtained from the National Cancer Institute, NCI (Bethesda, MD, USA). […] The L929 cells were cultivated under standard conditions in DMEM with Earle’s salts. […] At the end of the incubation time (72 h), the plates were centrifuged and the medium was replaced by fresh medium (200 μL) containing 0.5 mg/mL MTT. After 3 h, the MTT formazan product was dissolved in DMSO (150 μL) and the absorbance was measured using a multiplate reader (Spectra Count, Packard, ON, Canada). The impact of compounds on cell proliferation was quantified as the percentage of control absorbance of the reduced dye at 550 nm. All cell culture based studies were performed in triplicate. All cells were mycoplasma-free.

[2] = test system: L929 (murine fibroblasts normal cells); assay: MTT cytotoxicity, L929 normal cells; type: cell-based, mouse; settings: normal cell line, 72 h exposure, three independent experiments, read-out: Cytotoxic activity IC50 (95% CI) L929
Procedure: as §1

[3] = test system: NCIH-460 (human lung cells); assay: MTT cytotoxicity, NCIH-460 cells; type: cell-based; settings: three independent experiments, read-out: Cytotoxic activity IC50 (95% CI) NCIH-460
Procedure: as §1

[4] = test system: HL-60 (human promyelocytic leukemia cells); assay: MTT cytotoxicity, HL-60 cells; type: cell-based; settings: three independent experiments, read-out: Cytotoxic activity IC50 (95% CI) HL-60
Procedure: as §1

[5] = test system: HCT-116 (human colon carcinoma cells); assay: MTT cytotoxicity, HCT-116 cells; type: cell-based; settings: three independent experiments, read-out: Cytotoxic activity IC50 (95% CI) HCT-116
Procedure: as §1

[6] = test system: PC3 (human prostate cancer cells); assay: MTT cytotoxicity, PC3 cells; type: cell-based; settings: three independent experiments, read-out: Cytotoxic activity IC50 (95% CI) PC3
Procedure: as §1

[7] = MTT cytotoxicity, L929 normal cells; type: cell-based, mouse; settings: mouse, normal cell line, 72 h exposure, three independent experiments, read-out: Cytotoxic activity IC50 (95% CI) L929
Procedure: as §1

[8] = Homo sapiens, SF-295, 72 h exposure
[9] = Homo sapiens, NCI-H460, 72 h exposure
[10] = Homo sapiens, HL-60, 72 h exposure
[11] = Homo sapiens, HCT-116, 72 h exposure
[12] = Homo sapiens, PC-3, 72 h exposure

## 3-Bromo-2,2-dimethyl-4-(4-((p-tolylselanyl)methyl)-1H-1,2,3-triazol-1-yl)-3,4-dihydro-2H-benzo[h]-chromene-5,6-dione [Compound 21]
[1]; 72 h exposure
  IC50: 1630 nM
[2]
  IC50: 1280 nM
[3]; 72 h exposure
  IC50: 1490 nM
[4]; 72 h exposure
  IC50: 1000 nM
[5]; 72 h exposure
  IC50: > 8000 nM
[6]; 72 h exposure
  IC50: 1770 nM

## 4-(4-((Benzylselanyl)methyl)-1H-1,2,3-triazol-1-yl)-3-bromo-2,2-dimethyl-3,4-dihydro-2H-benzo[h]-chromene-5,6-dione [Compound 20]
[1]; 72 h exposure
  IC50: 3120 nM
[2]
  IC50: 610 nM
[3]; 72 h exposure
  IC50: 3260 nM
[4]; 72 h exposure
  IC50: 1000 nM
[5]; 72 h exposure
  IC50: 2030 nM

## COC1=C(Cn2cc(-c3ccc(Br)cc3)nn2)C(=O)c2ccccc2C1=O [Compound 13, 2-((4-(4-Bromophenyl)-1H-1,2,3-triazol-1-yl)methyl)-3-methoxynaphthalene-1,4-dione]
[1]; [8]
  IC50: > 10000 nM
[7]
  IC50 at 72 h: > 10000 nM
[3]; [9]
  IC50: > 10000 nM
other
  melting point: 174.1 to 175 °C
[4]; [10]
  IC50: > 10000 nM
[5]; [11]
  IC50: > 10000 nM
[6]; [12]
  IC50: > 10000 nM

## COC1=C(Cn2cc(C[Se]c3ccccc3)nn2)C(=O)c2ccccc2C1=O [Compound 14, 2-Methoxy-3-((4-((phenylselanyl)methyl)-1H-1,2,3-triazol-1-yl)methyl)naphthalene-1,4-dione]
[1]; [8]
  IC50: > 10000 nM
[7]
  IC50 at 72 h: > 10000 nM
[3]; [9]
  IC50: > 10000 nM
other
  melting point: 69 to 71 °C
[4]; [10]
  IC50: > 10000 nM
[5]; [11]
  IC50: > 10000 nM
[6]; [12]
  IC50: > 10000 nM

## CC1(C)OC2=C(C(=O)C(=O)c3ccccc32)C(n2cc(C[Se]c3ccc(Cl)cc3)nn2)C1Br (stereo not shown) [Compound 17, 3-Bromo-4-(4-(((4-chlorophenyl)selanyl)methyl)-1H-1,2,3-triazol-1-yl)-2,2-dimethyl-3,4-dihydro-2H-benzo[h]chromene-5,6-dione]
[1]; [8]
  IC50: 2600 nM
[7]
  IC50 at 72 h: 520 nM
[3]; [9]
  IC50: 2060 nM
other
  melting point: 185.3 to 187.1 °C
[4]; [10]
  IC50: 810 nM
[5]; [11]
  IC50: > 8000 nM
[6]; [12]
  IC50: 2030 nM

## CC1(C)OC2=C(C(=O)C(=O)c3ccccc32)C(n2cc(C[Se]c3ccc(F)cc3)nn2)C1Br (stereo not shown) [Compound 18, 3-Bromo-4-(4-(((4-fluorophenyl)selanyl)methyl)-1H-1,2,3-triazol-1-yl)-2,2-dimethyl-3,4-dihydro-2H-benzo[h]chromene-5,6-dione]
[1]; [8]
  IC50: 1480 nM
[7]
  IC50 at 72 h: 360 nM
[3]; [9]
  IC50: 1320 nM
other
  melting point: 187.1 to 190 °C
[4]; [10]
  IC50: 590 nM
[5]; [11]
  IC50: 370 nM
[6]; [12]
  IC50: 1060 nM

## COc1ccc([Se]Cc2cn(C3C4=C(OC(C)(C)C3Br)c3ccccc3C(=O)C4=O)nn2)cc1 (stereo not shown) [Compound 19, 3-Bromo-4-(4-(((4-methoxyphenyl)selanyl)methyl)-1H-1,2,3-triazol-1-yl)-2,2-dimethyl-3,4-dihydro-2H-benzo[h]chromene-5,6-dione]
[1]; [8]
  IC50: 1750 nM
[7]
  IC50 at 72 h: 680 nM
[3]; [9]
  IC50: 2330 nM
other
  melting point: 113.5 to 114.6 °C
[4]; [10]
  IC50: 1280 nM
[5]; [11]
  IC50: > 8000 nM
[6]; [12]
  IC50: 1550 nM

## CC1(C)OC2=C(C(=O)C(=O)c3ccccc32)C(n2cc(C[Se]c3cccs3)nn2)C1Br (stereo not shown) [Compound 22, 3-Bromo-2,2-dimethyl-4-(4-((thiophen-2-ylselanyl)methyl)-1H-1,2,3-triazol-1-yl)-3,4-dihydro-2H-benzo[h]chromene-5,6-dione]
[1]; [8]
  IC50: 2130 nM
[7]
  IC50 at 72 h: 3160 nM
[3]; [9]
  IC50: 2750 nM
other
  melting point: 104.3 to 108.6 °C
[4]; [10]
  IC50: 530 nM
[5]; [11]
  IC50: > 8000 nM
[6]; [12]
  IC50: 2470 nM

## CCCC[Se]Cc1cn(C2C3=C(OC(C)(C)C2Br)c2ccccc2C(=O)C3=O)nn1 (stereo not shown) [Compound 23, 3-Bromo-4-(4-((butylselanyl)methyl)-1H-1,2,3-triazol-1-yl)-2,2-dimethyl-3,4-dihydro-2H-benzo[h]chromene-5,6-dione]
[1]; [8]
  IC50: 3430 nM
[7]
  IC50 at 72 h: 2120 nM
[3]; [9]
  IC50: 2640 nM
other
  melting point: 123.1 to 124.4 °C
[4]; [10]
  IC50: 710 nM
[5]; [11]
  IC50: 970 nM
[6]; [12]
  IC50: 1640 nM

## CC1(C)OC2=C(C(=O)C(=O)c3ccccc32)C(n2cc(CSc3ccccc3)nn2)C1Br (stereo not shown) [Compound 24, 3-Bromo-2,2-dimethyl-4-(4-((phenylthio)methyl)-1H-1,2,3-triazol-1-yl)-3,4-dihydro-2H-benzo[h]chromene-5,6-dione]
[1]; [8]
  IC50: 2340 nM
[7]
  IC50 at 72 h: 840 nM
[3]; [9]
  IC50: 4910 nM
other
  melting point: 119.5 to 121.4 °C
[4]; [10]
  IC50: 1940 nM
[5]; [11]
  IC50: 4380 nM
[6]; [12]
  IC50: 2100 nM
